Laboratory results published in patent US20260138978A1, “POSITIVE ALLOSTERIC MODULATORS OF THE MUSCARINIC ACETYLCHOLINE RECEPTOR M1” (Vanderbilt University, priority 2022, published 2026).

Columns and labels:
human mAChRM1 [1] = biological target: T1, human mAChRM1 (Homo sapiens, UniProt P11229); assay: mAChR M1 cell-based functional assay (calcium mobilization), positive allosteric modulator activity: increase in the EC20 acetylcholine response; conditions: for Emax: PAM mode; for EC50 / PAM Activity Human M1 EC50: increase in the EC20 acetylcholine response; for EC50: read-out: PAM Activity Human M1 EC50
T1 construct: host or cells: CHO-K1
T1 sequence (P11229 1-460): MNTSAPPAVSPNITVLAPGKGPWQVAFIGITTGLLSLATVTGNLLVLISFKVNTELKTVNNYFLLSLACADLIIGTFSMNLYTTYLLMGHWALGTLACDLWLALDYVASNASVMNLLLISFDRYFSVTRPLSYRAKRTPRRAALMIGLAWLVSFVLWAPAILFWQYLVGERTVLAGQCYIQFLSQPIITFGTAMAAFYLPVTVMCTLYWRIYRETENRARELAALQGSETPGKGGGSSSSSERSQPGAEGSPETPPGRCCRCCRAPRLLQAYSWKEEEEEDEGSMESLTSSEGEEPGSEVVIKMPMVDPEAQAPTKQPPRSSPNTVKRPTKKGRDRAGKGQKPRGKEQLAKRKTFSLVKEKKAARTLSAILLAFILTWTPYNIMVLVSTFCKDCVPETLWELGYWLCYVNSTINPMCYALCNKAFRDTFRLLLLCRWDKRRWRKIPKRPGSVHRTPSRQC
Excerpt: (§1) Chinese hamster ovary (CHO-K1) cells stably expressing rat (r)M1 were purchased from the American Type Culture Collection and cultured according to their indicated protocol. CHO cells stably expressing human (h)M2, hM3, and hM5 were described previously (Levey, et al., 1991); hM1 and hM4 cDNAs were purchased from Missouri S&T cDNA Resource; rM4 cDNA was provided by T. I. Bonner (National Institutes of Health, Bethesda, MD). rM2 and rM3 were cloned from a rat brain cDNA library and sequence verified. hM1, rM2, rM3, hM4, and rM4 cDNAs were used to stably transfect CHO-K1 cells purchased from the American Type Culture Collection using Lipofectamine 2000. To make stable rM2, hM2, rM3, hM4. and rM4 cell lines for use in calcium mobilization assays, these cells also were stably transfected with a chimeric G-protein (Gqi5) (provided by B. R. Conklin, University of California, San Francisco) using Lipofectamine 2000. rM1, hM1, rM3, hM3, rM5, and hM5 cells were grown in Ham's F-12 medium containing 10% heat-inactivated fetal bovine serum (FBS), 20 mM HEPES, and 50 μg/mL G418 sulfate. rM2-Gqi5, hM2-Gqi5, and hM4-Gqi5 cells were grown in the same medium also containing 500 µg/mL Hygromycin B. Stable rM4-Gqi5 cells were grown in DMEM containing 10% heat-inactivated FBS, 20 mM HEPES, 400 μg/mL G418 sulfate, and 500 μg/mL Hygromycin B.
(§2) For high throughput measurement of agonist-evoked increases in intracellular calcium, CHO-K1 cells stably expressing muscarinic receptors were plated in growth medium lacking G418 and hygromycin at 15,000 cells/[…] in Greiner 384-well black-walled, tissue culture (TC)-treated, clear-bottom plates (VWR). Cells were incubated overnight at 37° C. and 5% CO2. The next day, cells were washed using an ELX 405 (BioTek) with four washes (80 μL) of assay buffer then aspirated to 20 μL. Next, 20 μL of 16 μM Fluo-4/acetoxymethyl ester (Invitrogen, Carlsbad, CA) prepared as a 2.3 mM stock in DMSO and mixed in a 1:1 ratio with 10% (w/v) Pluronic F-127 and diluted in assay buffer was added to the wells and the cell plates were incubated for 50 min at 37° C. and 5% CO2. Dye was removed by washing with the ELX 405 (four 80 μL washes of assay buffer) then aspirated to 20 μL. Compound master plates were formatted in an 11 point CR^c format (1:3 dilutions) in 100% DMSO with a starting concentration of 10 mM using the BRAVO liquid handler (Agilent). Test compound CRCs were then transferred to daughter plates (240 nL) using the Echo acoustic plate reformatter (Labcyte, Sunnyvale, CA) and then diluted into assay buffer ([…]) to a 2× stock using a Thermo Fisher Combi (Thermo Fisher Scientific, Waltham, MA).
(§3) Calcium flux was measured using the Functional Drug Screening System (FDSS) 6000 (Hamamatsu Corporation, Tokyo, Japan) as an increase in the fluorescent static ratio. Compounds were applied to cells (20 μL, 2×) using the automated system of the FDSS 6000 at 4 s into the 300 s protocol and the data were collected at 1 Hz. […] Agonist activity was analyzed as a concentration-dependent increase in calcium mobilization upon compound addition. Emax values for agonist activity are expressed relative to the maximum for acetylcholine. Positive allosteric modulator activity was analyzed as a concentration-dependent increase in the EC20 acetylcholine response. Antagonist activity was analyzed as a concentration-dependent decrease in the EC80 acetylcholine response. Concentration-response curves were generated using a four-parameter logistical equation in XLfit curve fitting software (IDBS, Bridgewater, NJ) for Excel (Microsoft, Redmond, WA) or Prism (GraphPad Software, Inc., San Diego, CA).
Activity (EC50 and Emax) was determined in the mAChRM1 cell-based functional assay as described above and the data are shown in Table 16. The compound numbers correspond to the compound numbers used in Table 15.

human mAChRM1 [2] = biological target: T1, human mAChRM1; assay: mAChR M1 cell-based functional assay (calcium mobilization), agonist activity upon compound addition, Emax relative to acetylcholine maximum; conditions: for Agonist Activity Human M1 EC50 / EC50: calcium mobilization upon compound addition; for Emax: relative to the maximum for acetylcholine
Excerpt: Lack of agonist activity may be measured as weak or no increase in calcium fluorescence in mAChRM1-transfected CHO-K1 cells in the presence of the compound, compared to the response of equivalent CHO-K1 cells in the absence of the compound. Lack of mAChRM1 agonist activity may be determined as a percent response relative to acetylcholine. For example, a disclosed compound may have less than or equal to 30%, 25%, 20%, 15%, 10%, 5%, or 1% mAChRM1 agonist activity relative to acetylcholine. A disclosed compound may have substantially no mAChRM1 agonist activity. […] The absence of mAChRM1 agonist activity may contribute to the avoidance of cholinergic adverse effect liability.
as §1, §2
as §3, with “Antagonist activity was analyzed as a concentration-dependent decrease in the EC80 acetylcholine response. Concentration-response curves were generated using a four-parameter logistical equation in XLfit curve fitting software (IDBS, Bridgewater, NJ) for Excel (Microsoft, Redmond, WA) or Prism (GraphPad Software, Inc., San Diego, CA).” left out

Emax (human mAChRM1 [1]) [%]	EC50 (human mAChRM1 [1]) [µM]	Agonist Activity Human M1 EC50 (human mAChRM1 [2])	PAM Activity Human M1 EC50 (human mAChRM1 [1])	EC50 (human mAChRM1 [2]) [µM]	Emax (human mAChRM1 [2]) [%]	Compound
50	≥ 10	inactive				Cn1cc2c(C(C)(C)O)cc(-c3cc(F)c(CN4Cc5ncccc5C4=O)c(F)c3)cc2n1 [Compound 19, 6-(2,6-difluoro-4-(4-(2-hydroxypropan-2-yl)-2-methyl-2H-indazol-6-yl)benzyl)-6,7-dihydro-5H-pyrrolo[3,4-b]pyridin-5-one]
65	1.44	inactive				CC(C)(O)c1ccc(-c2cc(Cl)c(CN3Cc4ncccc4C3=O)c(Cl)c2)cc1 [Compound 46, 6-((3,5-dichloro-4′-(2-hydroxypropan-2-yl)-[1,1′-biphenyl]-4-yl)methyl)-6,7-dihydro-5H-pyrrolo[3,4-b]pyridin-5-one]
		inactive	inactive			CC(C)(O)c1ccc(-c2cc(F)c(CN3Cc4ncccc4C3=O)c(F)c2)c2ncccc12 [Compound 37, 6-(2,6-difluoro-4-(5-(2-hydroxypropan-2-yl)quinolin-8-yl)benzyl)-6,7-dihydro-5H-pyrrolo[3,4-b]pyridin-5-one]
47	≥ 10	inactive				Cc1cc(-c2cn(C)nc2C(C)(C)O)ccc1CN1Cc2ncccc2C1=O [Compound 31, 6-(4-(3-(2-hydroxypropan-2-yl)-1-methyl-1H-pyrazol-4-yl)-2-methylbenzyl)-6,7-dihydro-5H-pyrrolo[3,4-b]pyridin-5-one]
67	1.65					Cc1cc(-c2ccc(C(C)(C)O)cc2)cc(F)c1CN1Cc2cccnc2C1=O [Compound 118, 6-((3-fluoro-4′-(2-hydroxypropan-2-yl)-5-methyl-[1,1′-biphenyl]-4-yl)methyl)-5,6-dihydro-7H-pyrrolo[3,4-b]pyridin-7-one]

Further lines, the compound ahead of its results:

Compound	Emax (human mAChRM1 [1]) [%]	EC50 (human mAChRM1 [1]) [µM]	Agonist Activity Human M1 EC50 (human mAChRM1 [2])	PAM Activity Human M1 EC50 (human mAChRM1 [1])	EC50 (human mAChRM1 [2]) [µM]	Emax (human mAChRM1 [2]) [%]
Cc1cc(-c2cc(C(C)(C)O)c3nn(C)cc3c2)cc(F)c1CN1Cc2ncccc2C1=O [Compound 50, 6-(2-fluoro-4-(7-(2-hydroxypropan-2-yl)-2-methyl-2H-indazol-5-yl)-6-methylbenzyl)-6,7-dihydro-5H-pyrrolo[3,4-b]pyridin-5-one]	66	0.784	inactive			
C[C@@H](c1c(F)cc(-c2ccc(C(C)(C)O)c3nn(C)cc23)cc1F)N1Cc2ncccc2C1=O [Compound 98, (S)-6-(1-(2,6-difluoro-4-(7-(2-hydroxypropan-2-yl)-2-methyl-2H-indazol-4-yl)phenyl)ethyl)-6,7-dihydro-5H-pyrrolo[3,4-b]pyridin-5-one]	80	1.12	inactive			
[2H]C1([2H])c2ncccc2C(=O)N1Cc1ccc(-c2ccc(C(C)(C)O)c3nn(C)cc23)cc1C(C)C [Compound 153, 6-(4-(7-(2-hydroxypropan-2-yl)-2-methyl-2H-indazol-4-yl)-2-isopropylbenzyl)-6,7-dihydro-5H-pyrrolo[3,4-b]pyridin-5-one-7,7-d2]	35	≥ 10	inactive			
CC(C)n1cc2c(-c3cc(F)c(CN4Cc5ncccc5C4=O)c(F)c3)ccc(C(C)(C)O)c2n1 [Compound 104, 6-(2,6-difluoro-4-(7-(2-hydroxypropan-2-yl)-2-isopropyl-2H-indazol-4-yl)benzyl)-6,7-dihydro-5H-pyrrolo[3,4-b]pyridin-5-one]	86	0.284	inactive			
Cn1cc2c(-c3cc(F)c(CN4Cc5ncccc5C4=O)c(F)c3)ccc(C(O)(C3CC3)C3CC3)c2n1 [Compound 84, 6-(4-(7-(dicyclopropyl(hydroxy)methyl)-2-methyl-2H-indazol-4-yl)-2,6-difluorobenzyl)-6,7-dihydro-5H-pyrrolo[3,4-b]pyridin-5-one]	84	1.44	inactive			
Cn1cc2cc(C(C)(C)O)cc(-c3cc(F)c(CN4Cc5ncccc5C4=O)c(F)c3)c2n1 [Compound 86, 6-(2,6-difluoro-4-(5-(2-hydroxypropan-2-yl)-2-methyl-2H-indazol-7-yl)benzyl)-6,7-dihydro-5H-pyrrolo[3,4-b]pyridin-5-one]			inactive	inactive		
COc1cc(-c2ccc(C(C)(C)O)c3nn(C)cc23)cc(F)c1CN1Cc2cccnc2C1=O [Compound 116, 6-(2-fluoro-4-(7-(2-hydroxypropan-2-yl)-2-methyl-2H-indazol-4-yl)-6-methoxybenzyl)-5,6-dihydro-7H-pyrrolo[3,4-b]pyridin-7-one]	88	0.233			≥ 10	17
[2H]C([2H])([2H])C(O)(c1ccc(-c2cc(F)c(CN3Cc4cccc(F)c4C3=O)c(F)c2)c2cn(C)nc12)C([2H])([2H])[2H] [Compound 156, 2-(2,6-difluoro-4-(7-(2-hydroxypropan-2-yl-1,1,1,3,3,3-d)-2-methyl-2H-indazol-4-yl)benzyl)-7-fluoroisoindolin-1-one]	83	0.136	inactive			
Cn1cc2c(-c3cc(F)c(CN4Cc5ncccc5C4=O)c(F)c3)ccc(C3(O)CN(C(=O)OC(C)(C)C)C3)c2n1 [Compound 113, tert-butyl 3-(4-(3,5-difluoro-4-((5-oxo-5,7-dihydro-6H-pyrrolo[3,4-b]pyridin-6-yl)methyl)phenyl)-2-methyl-2H-indazol-7-yl)-3-hydroxyazetidine-1-carboxylate]	76	0.856			≥ 10	13
Cn1cc2c(-c3ccc(CN4Cc5cccnc5C4=O)cc3)ccc(C(C)(C)O)c2n1 [Compound 131, 6-(4-(7-(2-hydroxypropan-2-yl)-2-methyl-2H-indazol-4-yl)benzyl)-5,6-dihydro-7H-pyrrolo[3,4-b]pyridin-7-one]	92	0.825	inactive			
